In patent publication US6156700A, “3-(1,2-Benzisothiazol- and isoxazol-5-yl)-2,4(1H,3H)-pyrimidinedione or thione and 3-(1,2-benzisothiazol- and isoxazol-5-yl)-4(3H)-pyrimidinone or thione herbicidal agents” (American Cyanmid Company, priority 1998, dated 2000):

Columns and labels:
Parameters in all cases: scale not given here
[1] = tested on: CYPIR Rice Flatsedge; assay: Postemergence weed control, flooded paddy (Table IV); type: in vivo, Cyperus iria
From the text: (§1) Plastic containers containing weeds which are 3 to 5 cm tall and rice seedlings at the 1.5 to 2.5 leaf stage are flooded with water. The water is maintained at 1.5 to 3 cm above the soil surface for the duration of the experiment. Test compounds are applied as aqueous/acetone mixtures 50/50 v/v directly into the flood water to provide the equivalent of about 0.0313 to 0.500 kg/ha of active ingredient. The treated containers are placed on greenhouse benches and cared for in accordance with conventional greenhouse procedures. Three to four weeks after treatment, the test is terminated and each container is examined and herbicidal effect rated according to the rating system provided in Example 185. The compounds evaluated are reported by compound number given in Example 185.

[2] = tested on: SAGPY Arrowhead (Pygmaea); assay: as above; type: in vivo, Sagittaria pygmaea
From the text: as §1

[3] = tested on: CYPSE Flatsedge; assay: as above; type: in vivo, Cyperus serotinus
From the text: as §1

[4] = tested on: MOOVA Monochoria; assay: as above; type: in vivo, Monochoria vaginalis
From the text: as §1

[5] = tested on: ECHORC Watergrass (Calif.); assay: as above; type: in vivo, Echinochloa oryzoides
From the text: as §1

[6] = tested on: ORYSAT Rice, Tebonnet; assay: Rice tolerance, flooded paddy (Table IV); type: in vivo, Oryza sativa; conditions: crop tolerance
From the text: as §1

## CCOC(=O)COc1ccc(C)cc1-c1nsc2ccc(-n3c(=O)cc(C(F)(F)F)n(C)c3=O)cc12 [Compound 49, Ethyl {{2-{5-[3,6-dihydro-3-methyl-2,6-dioxo-4-(trifluoromethyl)-1(2H)-pyrimidinyl]-1,2-benzisothiazol-3-yl}-p-tolyl}oxy}acetate]
[1]; 0.1250 kg/ha
  herbicidal effect rating: 4.0
[1]; 0.2500 kg/ha
  herbicidal effect rating: 6.0
[2]; 0.1250 kg/ha
  herbicidal effect rating: 0.0
[2]; 0.2500 kg/ha
  herbicidal effect rating: 0.0
[3]; 0.1250 kg/ha
  herbicidal effect rating: 0.0
[3]; 0.2500 kg/ha
  herbicidal effect rating: 0.0
[4]; 0.1250 kg/ha
  herbicidal effect rating: 9.0
[4]; 0.2500 kg/ha
  herbicidal effect rating: 9.0
[5]; 0.1250 kg/ha
  herbicidal effect rating: 9.0
[5]; 0.2500 kg/ha
  herbicidal effect rating: 9.0
[6]; 0.1250 kg/ha
  herbicidal effect rating: 0.0
[6]; 0.2500 kg/ha
  herbicidal effect rating: 0.0

## COC(=O)COc1ccc(C)cc1-c1noc2ccc(-n3c(=O)cc(C(F)(F)F)n(C)c3=O)c(Cl)c12 [Compound 261, Acetic acid,{{2-{4-chloro-5-[3,6-dihydro-3-methyl-2,6-dioxo-4-(trifluoromethyl)-1(2H)-pyrimidinyl]-1,2-benzisoxazol-3-yl}-p-tolyl}oxy}-, methyl ester]
[1]; 0.1250 kg/ha
  herbicidal effect rating: 6.0
[1]; 0.2500 kg/ha
  herbicidal effect rating: 6.0
[2]; 0.1250 kg/ha
  herbicidal effect rating: 0.0
[2]; 0.2500 kg/ha
  herbicidal effect rating: 0.0
[3]; 0.1250 kg/ha
  herbicidal effect rating: 0.0
[3]; 0.2500 kg/ha
  herbicidal effect rating: 0.0
[4]; 0.1250 kg/ha
  herbicidal effect rating: 9.0
[4]; 0.2500 kg/ha
  herbicidal effect rating: 9.0
[5]; 0.1250 kg/ha
  herbicidal effect rating: 0.0
[5]; 0.2500 kg/ha
  herbicidal effect rating: 0.0
[6]; 0.1250 kg/ha
  herbicidal effect rating: 0.0
[6]; 0.2500 kg/ha
  herbicidal effect rating: 0.0

## COc1c(-c2nsc3ccc(-n4c(=O)cc(C(F)(F)F)n(C)c4=O)cc23)ccc(C)c1C [Compound 267, 2,4(1H,3H)-Pyrimidinedione,3-[3-(2-methoxy-3,4-xylyl)-1,2-benzisothiazol-5-yl]-1-methyl-6-(trifluoromethyl)-]
[1]; 0.1250 kg/ha
  herbicidal effect rating: 9.0
[1]; 0.2500 kg/ha
  herbicidal effect rating: 9.0
[2]; 0.1250 kg/ha
  herbicidal effect rating: 0.0
[2]; 0.2500 kg/ha
  herbicidal effect rating: 0.0
[3]; 0.1250 kg/ha
  herbicidal effect rating: 0.0
[3]; 0.2500 kg/ha
  herbicidal effect rating: 0.0
[4]; 0.1250 kg/ha
  herbicidal effect rating: 9.0
[4]; 0.2500 kg/ha
  herbicidal effect rating: 9.0
[5]; 0.1250 kg/ha
  herbicidal effect rating: 9.0
[5]; 0.2500 kg/ha
  herbicidal effect rating: 9.0
[6]; 0.1250 kg/ha
  herbicidal effect rating: 6.0
[6]; 0.2500 kg/ha
  herbicidal effect rating: 7.0

## CCOc1cccc(-c2nsc3ccc(-n4c(=O)cc(C(F)(F)F)n(C)c4=O)cc23)c1 [Compound 327, 2,4(1H,3H)-Pyrimidinedione, 3-[3-(m-ethoxyphenyl)-1,2-benzisothiazol-5-yl]-1-methyl-6-(trifluoromethyl)-]
[1]; 0.1250 kg/ha
  herbicidal effect rating: 9.0
[1]; 0.2500 kg/ha
  herbicidal effect rating: 9.0
[2]; 0.1250 kg/ha
  herbicidal effect rating: 4.0
[2]; 0.2500 kg/ha
  herbicidal effect rating: 4.0
[3]; 0.1250 kg/ha
  herbicidal effect rating: 0.0
[3]; 0.2500 kg/ha
  herbicidal effect rating: 2.0
[4]; 0.1250 kg/ha
  herbicidal effect rating: 9.0
[4]; 0.2500 kg/ha
  herbicidal effect rating: 9.0
[5]; 0.1250 kg/ha
  herbicidal effect rating: 9.0
[5]; 0.2500 kg/ha
  herbicidal effect rating: 9.0
[6]; 0.1250 kg/ha
  herbicidal effect rating: 5.0
[6]; 0.2500 kg/ha
  herbicidal effect rating: 4.0

## CC(C)Oc1cccc(-c2nsc3ccc(-n4c(=O)cc(C(F)(F)F)n(C)c4=O)cc23)c1 [Compound 328, 2,4(1H,3H)-Pyrimidinedione, 3-[3-(m-isopropoxyphenyl)-1,2-benzisothiazol-5-yl]-1-methyl-6-(trifluoromethyl)-]
[1]; 0.1250 kg/ha
  herbicidal effect rating: 9.0
[1]; 0.2500 kg/ha
  herbicidal effect rating: 9.0
[2]; 0.1250 kg/ha
  herbicidal effect rating: 2.0
[2]; 0.2500 kg/ha
  herbicidal effect rating: 6.0
[3]; 0.1250 kg/ha
  herbicidal effect rating: 6.0
[3]; 0.2500 kg/ha
  herbicidal effect rating: 6.0
[4]; 0.1250 kg/ha
  herbicidal effect rating: 9.0
[4]; 0.2500 kg/ha
  herbicidal effect rating: 9.0
[5]; 0.1250 kg/ha
  herbicidal effect rating: 9.0
[5]; 0.2500 kg/ha
  herbicidal effect rating: 9.0
[6]; 0.1250 kg/ha
  herbicidal effect rating: 4.0
[6]; 0.2500 kg/ha
  herbicidal effect rating: 4.0

## COc1ccc(OC)c(-c2nsc3ccc(-n4c(=O)cc(C(F)(F)F)n(C)c4=O)cc23)c1 [Compound 333, 2,4(1H,3H)-Pyrimidinedione, 3-[3-(2,5-dimethoxyphenyl)-1,2-benzisothiazol-5-yl]-1-methyl-6-(trifluoromethyl)-]
[1]; 0.1250 kg/ha
  herbicidal effect rating: 9.0
[1]; 0.2500 kg/ha
  herbicidal effect rating: 9.0
[2]; 0.1250 kg/ha
  herbicidal effect rating: 4.0
[2]; 0.2500 kg/ha
  herbicidal effect rating: 4.0
[3]; 0.1250 kg/ha
  herbicidal effect rating: 4.0
[3]; 0.2500 kg/ha
  herbicidal effect rating: 8.0
[4]; 0.1250 kg/ha
  herbicidal effect rating: 9.0
[4]; 0.2500 kg/ha
  herbicidal effect rating: 9.0
[5]; 0.1250 kg/ha
  herbicidal effect rating: 9.0
[5]; 0.2500 kg/ha
  herbicidal effect rating: 9.0
[6]; 0.1250 kg/ha
  herbicidal effect rating: 6.0
[6]; 0.2500 kg/ha
  herbicidal effect rating: 6.0

## CON(C)C(=O)COc1ccccc1-c1nsc2ccc(-n3c(=O)cc(C(F)(F)F)n(C)c3=O)cc12 [Compound 354, Acetamide,2-{o-{5-[3,6-dihydro-3-methyl-2,6-dioxo-4-(trifluoromethyl)-1(2H)-pyrimidinyl]-1,2-benzisothiazol-3-yl}phenoxy}-N-methoxy-N-methyl-]
[1]; 0.1250 kg/ha
  herbicidal effect rating: 9.0
[2]; 0.1250 kg/ha
  herbicidal effect rating: 9.0
[3]; 0.1250 kg/ha
  herbicidal effect rating: 9.0
[4]; 0.1250 kg/ha
  herbicidal effect rating: 9.0
[5]; 0.1250 kg/ha
  herbicidal effect rating: 9.0
[6]; 0.1250 kg/ha
  herbicidal effect rating: 6.0

## COC(=O)COc1ccc(C)cc1-c1noc2cc(F)c(-n3c(=O)cc(C(F)(F)F)n(C)c3=O)cc12 [Compound 359, Acetic acid, {{2-{5-[3,6-dihydro-3-methyl-2,6-dioxo-4-(trifluoromethyl)-1(2H)-pyrimidinyl]-6-fluoro-1,2-benzisoxazol-3-yl}-p-tolyl}oxy}-, methyl ester]
[1]; 0.1250 kg/ha
  herbicidal effect rating: 9.0
[2]; 0.1250 kg/ha
  herbicidal effect rating: 0.0
[3]; 0.1250 kg/ha
  herbicidal effect rating: 0.0
[4]; 0.1250 kg/ha
  herbicidal effect rating: 9.0
[5]; 0.1250 kg/ha
  herbicidal effect rating: 6.0
[6]; 0.1250 kg/ha
  herbicidal effect rating: 4.0

## CC(C)S(=O)(=O)NC(=O)c1nsc2ccc(-n3c(=O)cc(C(F)(F)F)n(C)c3=O)cc12 [Compound 362, 1,2-Benzisothiazole-3-carboxamide,5-[3,6-dihydro-3-methyl-2,6-dioxo-4-(trifluoromethyl)-1(2H)-pyrimidinyl]-N-(isopropylsulfonyl)-]
[1]; 0.1250 kg/ha
  herbicidal effect rating: 8.0
[1]; 0.2500 kg/ha
  herbicidal effect rating: 4.0
[2]; 0.1250 kg/ha
  herbicidal effect rating: 4.0
[2]; 0.2500 kg/ha
  herbicidal effect rating: 8.0
[3]; 0.1250 kg/ha
  herbicidal effect rating: 9.0
[3]; 0.2500 kg/ha
  herbicidal effect rating: 9.0
[4]; 0.1250 kg/ha
  herbicidal effect rating: 9.0
[4]; 0.2500 kg/ha
  herbicidal effect rating: 9.0
[5]; 0.1250 kg/ha
  herbicidal effect rating: 7.0
[5]; 0.2500 kg/ha
  herbicidal effect rating: 9.0
[6]; 0.1250 kg/ha
  herbicidal effect rating: 3.0
[6]; 0.2500 kg/ha
  herbicidal effect rating: 6.0

## COCc1nsc2cc(F)c(-n3c(=O)cc(C(F)(F)F)n(C)c3=O)cc12 [Compound 378, 2,4(1H,3H)-Pyrimidinedione, 3-[6-fluoro-3-(methoxymethyl)-1,2-benzisothiazol-5-yl]-1-methyl-6-(trifluoromethyl)-]
[1]; 0.1250 kg/ha
  herbicidal effect rating: 9.0
[2]; 0.1250 kg/ha
  herbicidal effect rating: 9.0
[3]; 0.1250 kg/ha
  herbicidal effect rating: 9.0
[4]; 0.1250 kg/ha
  herbicidal effect rating: 9.0
[5]; 0.1250 kg/ha
  herbicidal effect rating: 9.0
[6]; 0.1250 kg/ha
  herbicidal effect rating: 9.0

## COc1cc2c(cc1-c1nsc3ccc(-n4c(=O)cc(C(F)(F)F)n(C)c4=O)cc13)CCC2 [Compound 380, 2,4(1H,3H)-Pyrimidinedione, 3-[3-(6-methoxy-5-indanyl)-1,2-benzisothiazol-5-yl]-1-methyl-6-(trifluoromethyl)-]
[1]; 0.1250 kg/ha
  herbicidal effect rating: 9.0
[1]; 0.2500 kg/ha
  herbicidal effect rating: 9.0
[2]; 0.1250 kg/ha
  herbicidal effect rating: 2.0
[2]; 0.2500 kg/ha
  herbicidal effect rating: 8.0
[3]; 0.1250 kg/ha
  herbicidal effect rating: 2.0
[3]; 0.2500 kg/ha
  herbicidal effect rating: 8.0
[4]; 0.1250 kg/ha
  herbicidal effect rating: 9.0
[4]; 0.2500 kg/ha
  herbicidal effect rating: 9.0
[5]; 0.1250 kg/ha
  herbicidal effect rating: 9.0
[5]; 0.2500 kg/ha
  herbicidal effect rating: 9.0
[6]; 0.1250 kg/ha
  herbicidal effect rating: 7.0
[6]; 0.2500 kg/ha
  herbicidal effect rating: 7.0

## COc1cc(C)c(I)cc1-c1nsc2ccc(-n3c(=O)cc(C(F)(F)F)n(C)c3=O)cc12 [Compound 429, 2,4(1H,3H)-Pyrimidinedione,3-[3-(5-iodo-2-methoxy-p-tolyl)-1,2-benzisothiazol-5-yl]-1-methyl-6-(trifluoromethyl)-]
[1]; 0.1250 kg/ha
  herbicidal effect rating: 7.0
[1]; 0.2500 kg/ha
  herbicidal effect rating: 9.0
[2]; 0.1250 kg/ha
  herbicidal effect rating: 0.0
[2]; 0.2500 kg/ha
  herbicidal effect rating: 0.0
[3]; 0.1250 kg/ha
  herbicidal effect rating: 0.0
[3]; 0.2500 kg/ha
  herbicidal effect rating: 0.0
[4]; 0.1250 kg/ha
  herbicidal effect rating: 7.0
[4]; 0.2500 kg/ha
  herbicidal effect rating: 7.0
[5]; 0.1250 kg/ha
  herbicidal effect rating: 6.0
[5]; 0.2500 kg/ha
  herbicidal effect rating: 9.0
[6]; 0.1250 kg/ha
  herbicidal effect rating: 2.0
[6]; 0.2500 kg/ha
  herbicidal effect rating: 2.0

## Cc1ccc(OCC(=O)OCC2(c3ccccc3)CC2)c(-c2nsc3ccc(-n4c(=O)cc(C(F)(F)F)n(C)c4=O)cc23)c1 [Compound 517, Acetic acid, {{2-{5-[3,6-dihydro-3-methyl-2,6-dioxo-4-(trifluoromethyl)-1(2H)-pyrimidinyl]-1,2-benzisothiazol-3-yl}-p-tolyl}oxy}-, (1-phenylcyclopropyl)methyl ester]
[1]; 0.1250 kg/ha
  herbicidal effect rating: 9.0
[1]; 0.2500 kg/ha
  herbicidal effect rating: 9.0
[3]; 0.1250 kg/ha
  herbicidal effect rating: 0.0
[5]; 0.1250 kg/ha
  herbicidal effect rating: 0.0
[5]; 0.2500 kg/ha
  herbicidal effect rating: 0.0
[6]; 0.1250 kg/ha
  herbicidal effect rating: 0.0
[6]; 0.2500 kg/ha
  herbicidal effect rating: 0.0

## C#CCOC(=O)C(C)(C)Oc1ccc(C)cc1-c1nsc2ccc(-n3c(=O)cc(C(F)(F)F)n(C)c3=O)cc12 [Compound 528, Propionic acid, 2-{{2-{5-[3,6-dihydro-3-methyl-2,6-dioxo-4-(trifluoromethyl)-i(2H)-pyrimidinyl]-1,2-benzisothiazol-3-yl}-p-tolyl}oxy}-2-methyl-, 2-propynyl ester]
[1]; 0.1250 kg/ha
  herbicidal effect rating: 6.0
[1]; 0.2500 kg/ha
  herbicidal effect rating: 6.0
[2]; 0.1250 kg/ha
  herbicidal effect rating: 0.0
[3]; 0.2500 kg/ha
  herbicidal effect rating: 9.0
[6]; 0.1250 kg/ha
  herbicidal effect rating: 2.0
[6]; 0.2500 kg/ha
  herbicidal effect rating: 3.0
